Measured values from the NIST ThermoML archive (doi:10.1021/je100057b).
Values joined by “and” are separate entries in the source; they are usually repeats but may differ in a detail not shown here. Equal values may be shown once.

Details: Liquid, Falling or rolling sphere viscometry

CCCCC(=O)OCC(COCC(COC(=O)CCCC)(COC(=O)CCCC)COC(=O)CCCC)(COC(=O)CCCC)COC(=O)CCCC
Details | viscosity
283.15 K, 101.33 kPa | 259 mPa·s and 257.9 mPa·s
288.15 K, 101.33 kPa | 189.2 mPa·s and 188.5 mPa·s
293.15 K, 101.33 kPa | 141.2 mPa·s and 140.8 mPa·s
298.15 K, 101.33 kPa | 107.6 mPa·s and 107.3 mPa·s
303.15 K, 100 kPa | 85.9 mPa·s
303.15 K, 101.33 kPa | 83.52 mPa·s and 83.31 mPa·s
303.15 K, 1000 kPa | 87.2 mPa·s
303.15 K, 5000 kPa | 93.2 mPa·s
303.15 K, 10000 kPa | 101 mPa·s
303.15 K, 20000 kPa | 119 mPa·s
303.15 K, 30000 kPa | 139 mPa·s
303.15 K, 40000 kPa | 163 mPa·s
303.15 K, 50000 kPa | 189 mPa·s
303.15 K, 60000 kPa | 219 mPa·s
308.15 K, 101.33 kPa | 65.88 mPa·s and 65.72 mPa·s
313.15 K, 100 kPa | 54.3 mPa·s
313.15 K, 101.33 kPa | 52.73 mPa·s and 52.64 mPa·s
313.15 K, 1000 kPa | 55.1 mPa·s
313.15 K, 5000 kPa | 58.8 mPa·s
313.15 K, 10000 kPa | 63.6 mPa·s
313.15 K, 20000 kPa | 74.4 mPa·s
313.15 K, 30000 kPa | 86.6 mPa·s
313.15 K, 40000 kPa | 100 mPa·s
313.15 K, 50000 kPa | 116 mPa·s
313.15 K, 60000 kPa | 133 mPa·s
318.15 K, 101.33 kPa | 42.8 mPa·s and 42.75 mPa·s
323.15 K, 101.33 kPa | 35.18 mPa·s and 35.15 mPa·s
328.15 K, 101.33 kPa | 29.24 mPa·s and 29.25 mPa·s
333.15 K, 100 kPa | 25 mPa·s
333.15 K, 101.33 kPa | 24.55 mPa·s and 24.59 mPa·s
333.15 K, 1000 kPa | 25.4 mPa·s
333.15 K, 5000 kPa | 26.9 mPa·s
333.15 K, 10000 kPa | 29 mPa·s
333.15 K, 20000 kPa | 33.6 mPa·s
333.15 K, 30000 kPa | 38.6 mPa·s
333.15 K, 40000 kPa | 44.2 mPa·s
333.15 K, 50000 kPa | 50.3 mPa·s
333.15 K, 60000 kPa | 56.9 mPa·s
338.15 K, 101.33 kPa | 20.81 mPa·s and 20.88 mPa·s
343.15 K, 101.33 kPa | 17.79 mPa·s and 17.88 mPa·s
348.15 K, 101.33 kPa | 15.34 mPa·s and 15.44 mPa·s
353.15 K, 100 kPa | 13.5 mPa·s
353.15 K, 101.33 kPa | 13.33 mPa·s and 13.42 mPa·s
353.15 K, 1000 kPa | 13.6 mPa·s
353.15 K, 5000 kPa | 14.4 mPa·s
353.15 K, 10000 kPa | 15.45 mPa·s
353.15 K, 20000 kPa | 17.7 mPa·s
353.15 K, 30000 kPa | 20.1 mPa·s
353.15 K, 40000 kPa | 22.8 mPa·s
353.15 K, 50000 kPa | 25.7 mPa·s
353.15 K, 60000 kPa | 28.8 mPa·s
358.15 K, 101.33 kPa | 11.66 mPa·s and 11.76 mPa·s
363.15 K, 101.33 kPa | 10.26 mPa·s and 10.36 mPa·s
368.15 K, 101.33 kPa | 9.08 mPa·s and 9.18 mPa·s
373.15 K, 100 kPa | 8.22 mPa·s
373.15 K, 101.33 kPa | 8.09 mPa·s and 8.18 mPa·s
373.15 K, 1000 kPa | 8.32 mPa·s
373.15 K, 5000 kPa | 8.78 mPa·s
373.15 K, 10000 kPa | 9.38 mPa·s
373.15 K, 20000 kPa | 10.6 mPa·s
373.15 K, 30000 kPa | 12 mPa·s
373.15 K, 40000 kPa | 13.5 mPa·s
373.15 K, 50000 kPa | 15.2 mPa·s
373.15 K, 60000 kPa | 16.9 mPa·s

CCCCCCC(=O)OCC(COCC(COC(=O)CCCCCC)(COC(=O)CCCCCC)COC(=O)CCCCCC)(COC(=O)CCCCCC)COC(=O)CCCCCC [dipentaerythritol hexaheptanoate]
Details | viscosity
283.15 K, 101.33 kPa | 260.7 mPa·s and 259.1 mPa·s
288.15 K, 101.33 kPa | 191.1 mPa·s and 190 mPa·s
293.15 K, 101.33 kPa | 143.1 mPa·s and 142.2 mPa·s
298.15 K, 101.33 kPa | 109.2 mPa·s and 108.5 mPa·s
303.15 K, 100 kPa | 86.3 mPa·s
303.15 K, 101.33 kPa | 84.89 mPa·s and 84.39 mPa·s
303.15 K, 1000 kPa | 87.7 mPa·s
303.15 K, 5000 kPa | 93.9 mPa·s
303.15 K, 10000 kPa | 102 mPa·s
303.15 K, 20000 kPa | 121 mPa·s
303.15 K, 30000 kPa | 142 mPa·s
303.15 K, 40000 kPa | 167 mPa·s
303.15 K, 50000 kPa | 194 mPa·s
303.15 K, 60000 kPa | 226 mPa·s
308.15 K, 101.33 kPa | 67.04 mPa·s and 66.67 mPa·s
313.15 K, 100 kPa | 55.8 mPa·s
313.15 K, 101.33 kPa | 53.73 mPa·s and 53.45 mPa·s
313.15 K, 1000 kPa | 56.6 mPa·s
313.15 K, 5000 kPa | 60.3 mPa·s
313.15 K, 10000 kPa | 65.3 mPa·s
313.15 K, 20000 kPa | 76.3 mPa·s
313.15 K, 30000 kPa | 88.9 mPa·s
313.15 K, 40000 kPa | 103 mPa·s
313.15 K, 50000 kPa | 119 mPa·s
313.15 K, 60000 kPa | 138 mPa·s
318.15 K, 101.33 kPa | 43.66 mPa·s and 43.45 mPa·s
323.15 K, 101.33 kPa | 35.93 mPa·s and 35.77 mPa·s
328.15 K, 101.33 kPa | 29.91 mPa·s and 29.79 mPa·s
333.15 K, 100 kPa | 25.5 mPa·s
333.15 K, 101.33 kPa | 25.18 mPa·s and 25.07 mPa·s
333.15 K, 1000 kPa | 25.9 mPa·s
333.15 K, 5000 kPa | 27.5 mPa·s
333.15 K, 10000 kPa | 29.6 mPa·s
333.15 K, 20000 kPa | 34.3 mPa·s
333.15 K, 30000 kPa | 39.5 mPa·s
333.15 K, 40000 kPa | 45.3 mPa·s
333.15 K, 50000 kPa | 51.7 mPa·s
333.15 K, 60000 kPa | 58.8 mPa·s
338.15 K, 101.33 kPa | 21.39 mPa·s and 21.31 mPa·s
343.15 K, 101.33 kPa | 18.32 mPa·s and 18.27 mPa·s
348.15 K, 101.33 kPa | 15.82 mPa·s and 15.79 mPa·s
353.15 K, 100 kPa | 13.8 mPa·s
353.15 K, 101.33 kPa | 13.77 mPa·s and 13.75 mPa·s
353.15 K, 1000 kPa | 14 mPa·s
353.15 K, 5000 kPa | 14.8 mPa·s
353.15 K, 10000 kPa | 15.9 mPa·s
353.15 K, 20000 kPa | 18.2 mPa·s
353.15 K, 30000 kPa | 20.8 mPa·s
353.15 K, 40000 kPa | 23.6 mPa·s
353.15 K, 50000 kPa | 26.6 mPa·s
353.15 K, 60000 kPa | 30 mPa·s
358.15 K, 101.33 kPa | 12.06 mPa·s
363.15 K, 101.33 kPa | 10.64 mPa·s
368.15 K, 101.33 kPa | 9.44 mPa·s and 9.45 mPa·s
373.15 K, 100 kPa | 8.46 mPa·s
373.15 K, 101.33 kPa | 8.42 mPa·s and 8.43 mPa·s
373.15 K, 1000 kPa | 8.56 mPa·s
373.15 K, 5000 kPa | 9.04 mPa·s
373.15 K, 10000 kPa | 9.66 mPa·s
373.15 K, 20000 kPa | 11 mPa·s
373.15 K, 30000 kPa | 12.4 mPa·s
373.15 K, 40000 kPa | 14 mPa·s
373.15 K, 50000 kPa | 15.7 mPa·s
373.15 K, 60000 kPa | 17.5 mPa·s
